Data as given in BindingDB's records for doi:10.1021/jm020940p (University of Innsbruck, 2002).

Legend:
[1] = The ability of compound to inhibit [35S][…] binding in guinea pig caudate stimulated by SNC80
[2] = The ability of compound to inhibit [35S][…] binding in guinea pig caudate stimulated by SNC80 (Opioid receptor delta 1) antagonist

C=CCN1CC[C@]23c4c5ccc(O)c4O[C@H]2c2[nH]c4ccccc4c2C[C@@]3(OCC)[C@H]1C5
Ki [1]: 1000 pM

CCO[C@@]12Cc3c([nH]c4ccccc34)[C@]3(C)Oc4c(O)ccc5c4C31CCN(CC1CC1)C2C5 (stereo partly drawn) [22-cyclopropylmethyl-2-ethoxy-13-methyl-(2S,13R)-14-oxa-11,22-diazaheptacyclo[13.9.1.01,13.02,21.04,12.05,10.019,25]pentacosa-4(12),5(10),6,8,15,17,19(25)-heptaen-16-ol]
Ki [2]: 960 pM

CCO[C@@]12Cc3c(oc4ccccc34)[C@@H]3Oc4c(O)ccc5c4[C@@]31CCN(CC1CC1)[C@@H]2C5
Ki [2]: 880 pM
